Values of other authors in paper PMC8287028 (Frontiers in Veterinary Science, 2021).

System: Factor Xa
Parameters: method as in PMID 35442563
Details: 19 sick dogs, post-treatment monitoring; cited from earlier work

O=C(NC[C@H]1CN(c2ccc(N3CCOCC3=O)cc2)C(=O)O1)c1ccc(Cl)s1 [rivaroxaban]
dogs with aXa activities below the range associated with positive clinical outcomes in humans: 8/19 | dogs with aXa activities exceeding the range associated with positive clinical outcomes in humans: 8/19
